Experimental data as given in US10414811B2, “Protease-resistant lipidated GLP-1 analogs” (MEDIMMUNE LIMITED, priority 2015, dated 2019).
Like-named read-outs stand apart in the source and are kept apart here. Numbered stars: 1 amine (or outer) side, 2 acyl side, 3 side chain; on linkers, the order of the positions; unused ones are H or OH. Square brackets hold non-standard residues; d marks the D form. Side chains are listed from the residue outwards. Peptide text beside a SMILES is read from it. * marks the point of attachment. C18 diacid = O=C(O)CCCCCCCCCCCCCCCCC(=O)*; γGlu = O=C(O)[C@H](CCC(=O)[*:2])N[*:1]; αMeF = C[C@](N)(Cc1ccccc1)C(=O)O; αMeK = C[C@](N)(CCCCN)C(=O)O; Lauroyl = CCCCCCCCCCCC(=O)*; αMeS = C[C@](N)(CO)C(=O)O; AEEA = NCCOCCOCC(=O)O; Aib = CC(C)(N)C(=O)O

How the values were obtained:
Format in all cases: cell-based
[1] = target: T1, human glucagon receptor (GCGR) (Homo sapiens, UniProt P47871); assay: cAMP assay, human GCGR cells
T1 construct: expressed in transfected cells
T1 sequence (P47871 26-477): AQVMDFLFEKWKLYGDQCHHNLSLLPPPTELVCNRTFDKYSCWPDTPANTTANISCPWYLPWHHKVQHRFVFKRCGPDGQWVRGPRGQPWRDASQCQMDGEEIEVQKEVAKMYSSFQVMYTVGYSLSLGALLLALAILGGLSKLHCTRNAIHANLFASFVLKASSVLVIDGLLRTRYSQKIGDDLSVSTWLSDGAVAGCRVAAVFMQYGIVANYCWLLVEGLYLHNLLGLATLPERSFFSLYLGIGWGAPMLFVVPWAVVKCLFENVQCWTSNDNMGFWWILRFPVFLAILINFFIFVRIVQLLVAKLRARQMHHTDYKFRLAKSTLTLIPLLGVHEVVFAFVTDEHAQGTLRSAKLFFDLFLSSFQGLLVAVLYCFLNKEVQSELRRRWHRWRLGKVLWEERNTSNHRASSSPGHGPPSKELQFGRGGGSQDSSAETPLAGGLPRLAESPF
In short: (§1)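 Peptide-stimulated cAMP measured by two-step HTRF after a 30 min room-temperature incubation with receptor-expressing cells (hGLP-1R, hGIPR at 1×10^5 cells/ml; hGCGR at 2×10^5 cells/ml). Duplicate dilutions; EC50 from 4-parameter logistic fit of % Delta F.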

GLP-1R (INS1e assay) = target: T2, GLP-1R (INS1e assay) (Rattus norvegicus, UniProt P32301); assay: INS1e assay, cAMP activity at GLP-1R
T2 construct: endogenous in cells; host or cells: INS-1E cells
T2 sequence (P32301 22-463): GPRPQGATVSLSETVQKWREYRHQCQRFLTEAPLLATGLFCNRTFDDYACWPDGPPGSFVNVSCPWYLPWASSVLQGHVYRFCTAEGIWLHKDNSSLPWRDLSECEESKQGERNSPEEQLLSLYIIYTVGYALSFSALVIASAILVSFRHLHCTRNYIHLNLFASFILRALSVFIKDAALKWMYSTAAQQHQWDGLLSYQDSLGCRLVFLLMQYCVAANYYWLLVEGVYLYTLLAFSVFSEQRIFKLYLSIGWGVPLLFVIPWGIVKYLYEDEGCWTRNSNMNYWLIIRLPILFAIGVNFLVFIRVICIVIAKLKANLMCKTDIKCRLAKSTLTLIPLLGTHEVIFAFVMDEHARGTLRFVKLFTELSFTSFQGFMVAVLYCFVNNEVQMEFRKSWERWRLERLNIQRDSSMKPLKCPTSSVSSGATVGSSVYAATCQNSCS
In short: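 cAMP was quantified by two-step HTRF, using anti-cAMP cryptate donor and cAMP-d2 acceptor, each diluted 1/20 in conjugate and lysis buffer. EC50 values of the synthetic peptides were derived from the cAMP readout.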

[2] = target: T3, human glucose-dependent insulinotropic peptide receptor (GIPR) (Homo sapiens, UniProt P48546); assay: cAMP assay, human GIPR cells
T3 construct: expressed in transfected cells
T3 sequence (P48546 22-466): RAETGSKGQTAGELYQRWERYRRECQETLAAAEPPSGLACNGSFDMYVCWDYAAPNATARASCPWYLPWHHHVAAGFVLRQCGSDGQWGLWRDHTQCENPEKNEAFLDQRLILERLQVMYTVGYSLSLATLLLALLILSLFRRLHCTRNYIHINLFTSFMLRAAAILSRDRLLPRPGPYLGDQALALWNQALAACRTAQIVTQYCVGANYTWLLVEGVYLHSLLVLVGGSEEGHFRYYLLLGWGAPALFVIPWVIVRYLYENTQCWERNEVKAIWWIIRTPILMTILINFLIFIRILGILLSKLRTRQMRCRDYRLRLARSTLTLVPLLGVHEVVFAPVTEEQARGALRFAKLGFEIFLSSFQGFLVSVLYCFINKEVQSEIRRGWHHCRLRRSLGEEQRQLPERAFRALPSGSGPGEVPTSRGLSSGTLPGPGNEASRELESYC
In short: as §1

[3] = target: T4, human GLP-1 receptor (GLP-1R) (Homo sapiens, UniProt P43220); assay: cAMP assay, human GLP-1R cells
T4 construct: expressed in transfected cells
T4 sequence (P43220 24-463): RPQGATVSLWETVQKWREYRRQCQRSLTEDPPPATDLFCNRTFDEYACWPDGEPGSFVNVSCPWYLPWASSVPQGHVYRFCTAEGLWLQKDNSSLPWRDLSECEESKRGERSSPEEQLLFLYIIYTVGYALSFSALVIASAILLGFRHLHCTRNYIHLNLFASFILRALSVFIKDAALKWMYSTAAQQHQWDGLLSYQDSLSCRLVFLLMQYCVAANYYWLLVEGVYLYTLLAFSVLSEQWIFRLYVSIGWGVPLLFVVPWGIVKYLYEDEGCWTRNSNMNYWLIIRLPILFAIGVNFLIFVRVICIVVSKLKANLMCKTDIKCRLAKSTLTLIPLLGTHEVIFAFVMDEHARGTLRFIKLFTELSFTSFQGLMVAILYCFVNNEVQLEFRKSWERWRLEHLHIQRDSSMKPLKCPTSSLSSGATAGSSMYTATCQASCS
In short: as §1

[4] = cAMP assay, first determination (n1), read-out: Primary assay EC50 Gluc-R (n1)
[5] = cAMP assay, second determination (n2), read-out: Primary assay EC50 Gluc-R (n2)
[6] = mono-lipidated peptides, replicate n1, read-out: INS1e assay EC50 GLP-1R n1
[7] = cAMP assay, first determination (n1), read-out: Primary assay EC50 GIP-R (n1)
[8] = cAMP assay, second determination (n2), read-out: Primary assay EC50 GIP-R (n2)
[9] = cAMP assay, first determination (n1), read-out: Primary assay EC50 GLP-1R n1
[10] = cAMP assay, second determination (n2), read-out: Primary assay EC50 GLP-1R n2
[11] = mean of n1 and n2, read-out: Mean pM GLP-1R
[12] = tris-lipidated peptides, first replicate, read-out: Primary assay EC50 Gluc-R (n1)
[13] = tris-lipidated peptides, mean of n1 and n2, read-out: INS1e assay EC50 Mean pM GLP-1R
[14] = tris-lipidated peptides, replicate n1, read-out: INS1e assay EC50 GLP-1R n1
[15] = tris-lipidated peptides, replicate n2, read-out: INS1e assay EC50 GLP-1R n2
[16] = tris-lipidated peptides, second replicate, read-out: Primary assay EC50 GIP-R (n2)
[17] = tris-lipidated peptides, mean of n1 and n2, read-out: Primary assay EC50 Mean pM GLP-1R
[18] = tris-lipidated peptides, replicate n1, read-out: Primary assay EC50 GLP-1R n1
[19] = tris-lipidated peptides, replicate n2, read-out: Primary assay EC50 GLP-1R n2
[20] = mono-lipidated peptides, mean of n1 and n2, read-out: INS1e assay EC50 Mean pM GLP-1R
[21] = mono-lipidated peptides, replicate n2, read-out: INS1e assay EC50 GLP-1R n2

SMILES | EC50 [1, 4] | EC50 [1, 5] | EC50 (GLP-1R (INS1e assay); [6]) | EC50 [2, 7] | EC50 [2, 8] | EC50 [3, 9] | EC50 [3, 10] | EC50 [3, 11] | EC50 [1, 12] | EC50 (GLP-1R (INS1e assay); [13]) | EC50 (GLP-1R (INS1e assay); [14]) | EC50 (GLP-1R (INS1e assay); [15]) | EC50 [2, 16] | EC50 [3, 17] | EC50 [3, 18] | EC50 [3, 19] | EC50 (GLP-1R (INS1e assay); [20]) | EC50 (GLP-1R (INS1e assay); [21])
CCCCCCCCCCCCCCCCCC(=O)NCCOCCOCC(=O)NCCOCCOCC(=O)NCCOCCOCC(=O)NCCCC[C@H](NC(=O)[C@H](C)NC(=O)[C@H](C)NC(=O)[C@H](CCC(=O)O)NC(=O)CNC(=O)[C@H](CCC(=O)O)NC(=O)[C@H](CC(C)C)NC(=O)[C@](C)(Cc1ccccc1)NC(=O)[C@H](CO)NC(=O)[C@H](CO)NC(=O)[C@@H](NC(=O)[C@H](CC(=O)O)NC(=O)[C@H](CO)NC(=O)[C@@H](NC(=O)[C@](C)(Cc1ccccc1)NC(=O)[C@H](CO)NC(=O)CNC(=O)[C@H](CCC(=O)O)NC(=O)C(C)(C)NC(=O)[C@@H](N)Cc1c[nH]cn1)[C@@H](C)O)C(C)C)C(=O)N[C@@H](CCC(=O)O)C(=O)N[C@@](C)(Cc1ccccc1)C(=O)N[C@H](C(=O)N[C@@H](C)C(=O)N[C@@](C)(Cc1ccccc1)C(=O)N[C@H](C(=O)N[C@H](C(=O)N[C@@](C)(CCCCN)C(=O)NCC(=O)NCC(N)=O)C(C)C)C(C)C)[C@@H](C)CC [compound 52] | ≥ 26 nM | ≥ 26 nM | 21.4 pM | ≥ 26 nM | ≥ 26 nM | 1.5 pM | 2.5 pM | 2 pM |  |  |  |  |  |  |  |  |  | 
CCCCCCCCCCCC(=O)N[C@@H](CCC(=O)NCCOCCOCC(=O)NCCOCCOCC(=O)NCCCC[C@H](NC(=O)[C@H](C)NC(=O)[C@@H](NC(=O)[C@H](Cc1ccccc1)NC(=O)[C@H](CCCCNC(=O)COCCOCCNC(=O)COCCOCCNC(=O)CC[C@H](NC(=O)CCCCCCCCCCC)C(=O)O)NC(=O)[C@](C)(CCCCN)NC(=O)[C@H](C)NC(=O)[C@H](C)NC(=O)[C@H](CCC(=O)O)NC(=O)CNC(=O)[C@H](CCC(=O)O)NC(=O)[C@H](CC(C)C)NC(=O)[C@H](Cc1ccc(O)cc1)NC(=O)[C@H](CO)NC(=O)[C@H](CO)NC(=O)[C@H](CCCCNC(=O)COCCOCCNC(=O)COCCOCCNC(=O)CC[C@H](NC(=O)CCCCCCCCCCC)C(=O)O)NC(=O)[C@H](CC(=O)O)NC(=O)[C@H](CO)NC(=O)[C@@H](NC(=O)[C@](C)(Cc1ccccc1)NC(=O)[C@H](CO)NC(=O)CNC(=O)[C@H](CCC(=O)O)NC(=O)C(C)(C)NC(=O)[C@@H](N)Cc1c[nH]cn1)[C@@H](C)O)[C@@H](C)CC)C(=O)N[C@H](C(=O)N[C@H](C(=O)N[C@@H](CCC(=O)O)C(=O)NCC(=O)NCC(N)=O)C(C)C)C(C)C)C(=O)O [compound 458] (H-H[Aib]EGS[αMeF]TSDK([AEEA-AEEA-γGlu-Lauroyl])SSYLEGEAA[αMeK]K([AEEA-AEEA-γGlu-Lauroyl])FIAK([AEEA-AEEA-γGlu-Lauroyl])VVEGG-NH2; N-terminus assumed) |  |  |  |  |  |  |  |  | 20 nM | 3370 pM | 3070 pM | 3670 pM | 20 nM | 41.4 pM | 36.3 pM | 46.4 pM |  | 
CCCCCCCCCCCCCCCCCC(=O)NCCOCCOCC(=O)NCCOCCOCC(=O)NCCCC[C@H](NC(=O)[C@H](C)NC(=O)[C@H](C)NC(=O)[C@H](CCC(=O)O)NC(=O)CNC(=O)[C@H](CCC(=O)O)NC(=O)[C@H](CC(C)C)NC(=O)[C@](C)(Cc1ccccc1)NC(=O)[C@H](CO)NC(=O)[C@](C)(CO)NC(=O)[C@@H](NC(=O)[C@H](CC(=O)O)NC(=O)[C@H](CO)NC(=O)[C@@H](NC(=O)[C@](C)(Cc1ccccc1)NC(=O)[C@H](CO)NC(=O)CNC(=O)[C@H](CCC(=O)O)NC(=O)C(C)(C)NC(=O)[C@@H](N)Cc1c[nH]cn1)[C@@H](C)O)C(C)C)C(=O)N[C@@H](CCC(=O)O)C(=O)N[C@@](C)(Cc1ccccc1)C(=O)N[C@H](C(=O)N[C@@H](C)C(=O)N[C@@](C)(Cc1ccccc1)C(=O)N[C@H](C(=O)N[C@H](C(=O)N[C@@](C)(CCCCN)C(=O)NCC(=O)NCC(N)=O)C(C)C)C(C)C)[C@@H](C)CC [compound 153] | ≥ 27 nM | ≥ 27 nM | 55 pM | ≥ 27 nM | ≥ 27 nM | 7.9 pM | 5 pM | 6.4 pM |  |  |  |  |  |  |  |  | 58 pM | 61.2 pM
CC[C@H](C)[C@H](NC(=O)[C@H](Cc1ccccc1)NC(=O)[C@H](CCC(=O)O)NC(=O)[C@H](C)NC(=O)[C@H](C)NC(=O)[C@H](C)NC(=O)[C@H](CCC(=O)O)NC(=O)CNC(=O)[C@H](CCC(=O)O)NC(=O)[C@H](CC(C)C)NC(=O)[C@](C)(Cc1ccccc1)NC(=O)[C@H](CO)NC(=O)[C@](C)(CO)NC(=O)[C@@H](NC(=O)[C@H](CC(=O)O)NC(=O)[C@H](CO)NC(=O)[C@@H](NC(=O)[C@](C)(Cc1ccccc1)NC(=O)[C@H](CO)NC(=O)CNC(=O)[C@H](CCC(=O)O)NC(=O)C(C)(C)NC(=O)[C@@H](N)Cc1c[nH]cn1)[C@@H](C)O)C(C)C)C(=O)N[C@@H](CCCCNC(=O)COCCOCCNC(=O)COCCOCCNC(=O)CC[C@H](NC(=O)CCCCCCCCCCCCCCCCC(=O)O)C(=O)O)C(=O)N[C@@H](Cc1c[nH]c2ccccc12)C(=O)N[C@H](C(=O)N[C@H](C(=O)N[C@@H](CCC(=O)O)C(=O)NCC(=O)NCC(N)=O)C(C)C)C(C)C [compound 69] (H-H[Aib]EGS[αMeF]TSDV[αMeS]S[αMeF]LEGEAAAEFIK([AEEA-AEEA-γGlu-C18 diacid])WVVEGG-NH2; N-terminus assumed) | ≥ 25.5 nM | ≥ 25.5 nM | 19200 pM | ≥ 25.5 nM | ≥ 25.5 nM | 66.1 pM | 39.9 pM | 53 pM |  |  |  |  |  |  |  |  | 22100 pM | 25000 pM
CCCCCCCCCCCC(=O)N[C@@H](CCC(=O)NCCOCCOCC(=O)NCCOCCOCC(=O)NCCCC[C@H](NC(=O)[C@H](C)NC(=O)[C@@H](NC(=O)[C@H](Cc1ccccc1)NC(=O)[C@H](CCC(=O)O)NC(=O)[C@](C)(CCCCN)NC(=O)[C@H](C)NC(=O)[C@H](C)NC(=O)[C@H](CCC(=O)O)NC(=O)[C@H](CCCCNC(=O)COCCOCCNC(=O)COCCOCCNC(=O)CC[C@H](NC(=O)CCCCCCCCCCC)C(=O)O)NC(=O)[C@H](CCC(=O)O)NC(=O)[C@H](CC(C)C)NC(=O)[C@H](Cc1ccc(O)cc1)NC(=O)[C@H](CO)NC(=O)[C@H](CO)NC(=O)[C@H](CCCCNC(=O)COCCOCCNC(=O)COCCOCCNC(=O)CC[C@H](NC(=O)CCCCCCCCCCC)C(=O)O)NC(=O)[C@H](CC(=O)O)NC(=O)[C@H](CO)NC(=O)[C@@H](NC(=O)[C@](C)(Cc1ccccc1)NC(=O)[C@H](CO)NC(=O)CNC(=O)[C@H](CCC(=O)O)NC(=O)C(C)(C)NC(=O)[C@@H](N)Cc1c[nH]cn1)[C@@H](C)O)[C@@H](C)CC)C(=O)N[C@H](C(=O)N[C@H](C(=O)N[C@@H](CCC(=O)O)C(=O)NCC(=O)NCC(N)=O)C(C)C)C(C)C)C(=O)O [compound 455] (H-H[Aib]EGS[αMeF]TSDK([AEEA-AEEA-γGlu-Lauroyl])SSYLEK([AEEA-AEEA-γGlu-Lauroyl])EAA[αMeK]EFIAK([AEEA-AEEA-γGlu-Lauroyl])VVEGG-NH2) |  |  |  |  |  |  |  |  | 19.8 nM | 4910 pM | 6740 pM | 3080 pM | 19.8 nM | 87.4 pM | 54.8 pM | 120 pM |  | 
